Values quoted from earlier work in patent publication US20260007780A1, “LIQUID VEHICLE FORMULATION FOR ENTEROGRAPHY EXAMINATION” (priority 2008, published 2026).

CC(=O)Nc1c(I)c(NC(C)=O)c(I)c(C(=O)O)c1I [Diatrizoic acid, diatrizoic acid]
solubility in water: practically insoluble in water
